ChEMBL document CHEMBL1201862, “PubChem BioAssay data set” (2004)
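Where inhibition never reached the appropriate level, the endpoint shown equals the highest concentration tested. Otherwise, values were interpolated linearly from a five-concentration, 48-hour dose response in 96-well plates. Abbreviation: GI50, concentration required for 50% inhibition of growth.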 Activity calls are given as the source filed them. No stated cut-off is given here; in the data, active = GI50 up to about 1.1 µM and inactive = higher.

Key:
Test in all cases: NCI tumour cell line growth inhibition, 48 h
MCF7 = test system: MCF7
786-0 = test system: 786-0
SK-MEL-5 = test system: SK-MEL-5
SW-620 = test system: SW-620
RXF 393 = test system: RXF 393
UACC-62 = test system: UACC-62
A549 = test system: A549
CAKI-1 = test system: CAKI-1
Hs-578T = test system: Hs-578T
NCI-H23 = test system: NCI-H23
HCT-116 = test system: HCT-116
UACC-257 = test system: UACC-257
NCI-H460 = test system: NCI-H460
U-251 = test system: U-251
PC-3 = test system: PC-3
OVCAR-3 = test system: OVCAR-3
SK-MEL-2 = test system: SK-MEL-2
SF-268 = test system: SF-268
M14 = test system: M14
SNB-75 = test system: SNB-75
Malme-3M = test system: Malme-3M
SF-539 = test system: SF-539
MDA-MB-231 = test system: MDA-MB-231
KM12 = test system: KM12
DU-145 = test system: DU-145
SF-295 = test system: SF-295
NCI-H226 = test system: NCI-H226
CCRF-CEM = test system: CCRF-CEM
SNB-19 = test system: SNB-19
HCT-15 = test system: HCT-15
OVCAR-5 = test system: OVCAR-5
MDA-N = test system: MDA-N
HCC 2998 = test system: HCC 2998
RPMI-8226 = test system: RPMI-8226
SK-MEL-28 = test system: SK-MEL-28
ACHN = test system: ACHN
NCI/ADR-RES = test system: NCI/ADR-RES
MDA-MB-435 = test system: MDA-MB-435
NCI-H522 = test system: NCI-H522
COLO 205 = test system: COLO 205
IGROV-1 = test system: IGROV-1
SN12C = test system: SN12C
HOP-62 = test system: HOP-62
MOLT-4 = test system: MOLT-4
HT-29 = test system: HT-29
SK-OV-3 = test system: SK-OV-3
HOP-92 = test system: HOP-92
OVCAR-8 = test system: OVCAR-8
UO-31 = test system: UO-31
EKVX = test system: EKVX
HL-60 = test system: HL-60
LOX IMVI = test system: LOX IMVI
K562 = test system: K562
A498 = test system: A498
OVCAR-4 = test system: OVCAR-4
TK-10 = test system: TK-10
SR = test system: SR

SMILES: CC1(C)COC(c2ccc(C(=O)c3ccc(Cl)cc3)cc2)=N1
- GI50 (MCF7): 86.5 µM (inactive)
- GI50 (786-0): > 100 µM (inactive)
- GI50 (SK-MEL-5): 7.23 µM (inactive)
- GI50 (SW-620): > 100 µM (inactive)
- GI50 (RXF 393): 79.6 µM (inactive)
- GI50 (UACC-62): > 100 µM (inactive)
- GI50 (A549): 83 µM (inactive)
- GI50 (CAKI-1): > 100 µM (inactive)
- GI50 (Hs-578T): > 100 µM (inactive)
- GI50 (NCI-H23): 6.95 µM (inactive)
- GI50 (HCT-116): > 100 µM (inactive)
- GI50 (UACC-257): 10.7 µM (inactive)
- GI50 (NCI-H460): > 100 µM (inactive)
- GI50 (U-251): > 100 µM (inactive)
- GI50 (PC-3): > 100 µM (inactive)
- GI50 (OVCAR-3): > 100 µM (inactive)
- GI50 (SK-MEL-2): > 100 µM (inactive)
- GI50 (SF-268): > 100 µM (inactive)
- GI50 (M14): > 100 µM (inactive)
- GI50 (SNB-75): > 100 µM (inactive)
- GI50 (Malme-3M): 42.5 µM (inactive)
- GI50 (SF-539): > 100 µM (inactive)
- GI50 (MDA-MB-231): > 100 µM (inactive)
- GI50 (KM12): > 100 µM (inactive)
- GI50 (DU-145): > 100 µM (inactive)
- GI50 (SF-295): 65.2 µM (inactive)
- GI50 (NCI-H226): 23 µM (inactive)
- GI50 (CCRF-CEM): > 100 µM (inactive)
- GI50 (SNB-19): > 100 µM (inactive)
- GI50 (HCT-15): > 100 µM
- GI50 (OVCAR-5): > 100 µM (inactive)
- GI50 (MDA-N): > 100 µM (inactive)
- GI50 (HCC 2998): > 100 µM (inactive)
- GI50 (RPMI-8226): > 100 µM (inactive)
- GI50 (SK-MEL-28): > 100 µM (inactive)
- GI50 (ACHN): > 100 µM (inactive)
- GI50 (NCI/ADR-RES): 92.7 µM (inactive)
- GI50 (MDA-MB-435): 44.5 µM (inactive)
- GI50 (NCI-H522): > 100 µM (inactive)
- GI50 (COLO 205): > 100 µM (inactive)
- GI50 (IGROV-1): > 100 µM (inactive)
- GI50 (SN12C): > 100 µM (inactive)
- GI50 (HOP-62): > 100 µM (inactive)
- GI50 (MOLT-4): 98.2 µM (inactive)
- GI50 (HT-29): > 100 µM (inactive)
- GI50 (SK-OV-3): > 100 µM (inactive)
- GI50 (HOP-92): 85.1 µM (inactive)
- GI50 (OVCAR-8): 84.9 µM (inactive)
- GI50 (UO-31): 58.7 µM (inactive)
- GI50 (EKVX): 44.6 µM (inactive)
- GI50 (HL-60): 43.5 µM (inactive)
- GI50 (LOX IMVI): > 100 µM (inactive)
- GI50 (K562): 28.6 µM (inactive)

SMILES: CC1=CCC2CC1NC(=O)CCOCCC(=O)NC2(C)C (configuration not stated)
- GI50 (A498): > 100 µM (inactive)
- GI50 (MCF7): > 100 µM (inactive)
- GI50 (786-0): > 100 µM (inactive)
- GI50 (SK-MEL-5): > 100 µM (inactive)
- GI50 (SW-620): > 100 µM (inactive)
- GI50 (RXF 393): > 100 µM (inactive)
- GI50 (UACC-62): > 100 µM (inactive)
- GI50 (A549): > 100 µM (inactive)
- GI50 (CAKI-1): > 100 µM (inactive)
- GI50 (NCI-H23): > 100 µM (inactive)
- GI50 (HCT-116): > 100 µM (inactive)
- GI50 (UACC-257): > 100 µM (inactive)
- GI50 (NCI-H460): > 100 µM (inactive)
- GI50 (U-251): > 100 µM (inactive)
- GI50 (PC-3): > 100 µM (inactive)
- GI50 (OVCAR-4): > 100 µM (inactive)
- GI50 (SK-MEL-2): > 100 µM (inactive)
- GI50 (SF-268): > 100 µM (inactive)
- GI50 (M14): > 100 µM (inactive)
- GI50 (SF-539): > 100 µM (inactive)
- GI50 (MDA-MB-231): > 100 µM (inactive)
- GI50 (KM12): > 100 µM (inactive)
- GI50 (DU-145): > 100 µM (inactive)
- GI50 (SF-295): > 100 µM (inactive)
- GI50 (NCI-H226): > 100 µM (inactive)
- GI50 (CCRF-CEM): > 100 µM (inactive)
- GI50 (TK-10): > 100 µM (inactive)
- GI50 (SNB-19): > 100 µM (inactive)
- GI50 (HCT-15): > 100 µM
- GI50 (OVCAR-5): > 100 µM (inactive)
- GI50 (MDA-N): > 100 µM (inactive)
- GI50 (SR): > 100 µM (inactive)
- GI50 (HCC 2998): > 100 µM (inactive)
- GI50 (RPMI-8226): > 100 µM (inactive)
- GI50 (SK-MEL-28): > 100 µM (inactive)
- GI50 (ACHN): > 100 µM (inactive)
- GI50 (NCI/ADR-RES): > 100 µM (inactive)
- GI50 (MDA-MB-435): > 100 µM (inactive)
- GI50 (NCI-H522): > 100 µM (inactive)
- GI50 (COLO 205): > 100 µM (inactive)
- GI50 (SN12C): > 100 µM (inactive)
- GI50 (MOLT-4): > 100 µM (inactive)
- GI50 (HT-29): > 100 µM (inactive)
- GI50 (SK-OV-3): > 100 µM (inactive)
- GI50 (HOP-92): > 100 µM (inactive)
- GI50 (OVCAR-8): > 100 µM (inactive)
- GI50 (UO-31): > 100 µM (inactive)
- GI50 (LOX IMVI): > 100 µM (inactive)
- GI50 (K562): > 100 µM (inactive)
